# From patent US20130108688A1, “Delivery of H2 Antagonists” (Trustees of Boston University, priority 2004, published 2013)
# Read-outs that look alike come from different tables or passages of the source.
# Key:
# immunized normal cells = conditions: in vitro; optimum enhancement at lower dosage (10 μg) on first day; cited from earlier work
# H2 receptor = conditions: via H2 receptor; cited from earlier work
# [1] = test system: CD8 (cytotoxic/suppressor) and CD4 (helper/inducer) lymphocytes; conditions: 800 mg daily for 7 days; cited from earlier work
# [2] = topical application to the oral cavity; cited from earlier work
# [3] = test system: P. gingivalis-induced periodontitis; conditions: for overall effect on tissue destruction and inflammatory cell infiltrate: local administration, three dosages; for linear distance from the epithelium to the alveolar crest border, ratio ligated/non-ligated sites (FIG. 6A): tip, middle and base of the crest
# Method: In total, 21 New Zealand White rabbits (male, 3.5-4.0 kg each) were used in the experiments presented herein. Three different doses of Cimetidine (0.1, 1.0 and 10 μg/mL) have been prepared in paucilamellar liposomes (NOVASOME®). The animals were distributed as follows: Group A: Ligature alone (2 rabbits); Group B: Ligature+P. gingivalis (4 rabbits); Group C: Ligature+P. gingivalis+liposome (NOVASOME®) alone; Group D: Ligature+P. gingivalis+NOVASOME® preparation comprising 0.1 μg/mL of Cimetidine (4 rabbits); Group E: Ligature+P. gingivalis+NOVASOME® preparation comprising 1.0 μg/mL of Cimetidine (4 rabbits); and Group F: Ligature+P. gingivalis+NOVASOME® preparation comprising 10 μg/mL of Cimetidine (4 rabbits). All animals were purchased from Pine Acre Farms (Berthoud, Co.). The weight of the animals was strictly controlled and all animals weighed between 3.5-4.0 kg at the time of the initial experimentation. The animals were kept in individual cages, received water ad libitum, and were fed with specialized food (chow) for at least 5 days for acclimatization by experienced and licensed laboratory technicians at the Laboratory Animal Science Center at BUMC (BUMC LASC).
# Ligature placement was performed under general anesthesia using ketamine (40 mg/kg) and xylazine (5 mg/kg) injections. […] Animals in group A received ligature only while animals in groups B, C, D, E, and F received P. gingivalis in addition to ligature placement.
# P. gingivalis (strain A74376) was grown as previously described. Briefly, bacteria were cultured on agar plates containing trypticase soy agar supplemented with 0.5% (w/v) yeast extract, 5% defibrinated sheep red blood cells, […], and 1 μg/mL vitamin K. Plates were incubated for 3 days at 37° C. in jars anaerobically maintained through palladium catalyzed hydrogen/carbon dioxide envelopes (GasPak Plus, BD Microbiology Systems, Sparks, Md.). Colonies were randomly selected and anaerobically cultured overnight at 37° C. in Schaedler's broth supplemented with vitamin K and hemin. Bacteria numbers were spectrophotometrically determined at 600 nm and 10^9 CFU (0.8 OD) were mixed with carboxymethylcellulose to form a thick slurry, which was applied topically to the ligated teeth. The sutures were checked at every appointment, and lost or loose sutures were replaced.
# Topical application was performed in animals of Groups D, E, and F every other day for 6 weeks under inhalation anesthesia using isoflurane (4.0 MAC/2.0 MAC). In these groups, Cimetidine was applied at three different doses. Cimetidine preparations were delivered in liposomes (NOVASOME®) that served as a vehicle for the H2 receptor antagonist. In order to see if liposome application alone would have any effect on the outcome, animals in Group C received liposomes without Cimetidine (i.e., NOVASOME® alone) in addition to ligature placement and P. gingivalis.
# For histological analysis, the other half of the mandible was immersed in a volume of immunocal (Decal Corporation, Tallman, N.Y.) equal to at least 10 times the size of the section; the solution was replaced every 24 hours for 72 hours. Decalcification was assessed and confirmed by serial radiographs, which were taken every other day during two weeks.
# The tissue was kept in this solution for 2-3 minutes, rinsed again in flowing deionized water for at least 3 minutes and kept in formalin for at least 24 hours before embedding in paraffin. Thin sections (5 μm) were cut and sections were conventionally stained with hematoxylin and eosin (H&E) to identify the cellular composition of the inflammatory infiltrates, and one hundred seventy (170) 5 μm-sections were stained with tartrate-resistant acid phosphatase (TRAP) to detect osteoclastic activity.
# The data obtained by direct measurements during morphologic assessment and by histomorphometric measurements was used in multiple statistical analyses.
# [4] = test system: P. gingivalis and ligature-induced experimental periodontitis
# neutrophils = conditions: cited from earlier work
# lymphocyte = conditions: cited from earlier work
# [5] = test system: P. gingivalis-induced periodontitis; conditions: three doses; p<0.05
# [6] = AIDS patients; cited from earlier work
SMILES,primary humoral antibody response (immunized normal cells),histamine-mediated increase in IL-α induced IL-6 synthesis (H2 receptor),CD4 (helper/inducer) lymphocytes [1],CD8 (cytotoxic/suppressor) lymphocytes [1],resolution of intra- and peri-oral warts [2],overall effect on tissue destruction and inflammatory cell infiltrate [3],overall effect on tissue destruction and inflammatory cell infiltrate ([3]; listed as cimetidine),"total, ligatured and ratio of ligatured/non-ligatured areas of the alveolar crest (FIG. 6B) ([3]; three doses)","linear distance from the epithelium to the alveolar crest border, ratio ligated/non-ligated sites (FIG. 6A) ([3]; three doses)","linear distance from the epithelium to the alveolar crest border, ratio ligated/non-ligated sites (FIG. 6A) ([3]; three doses, listed as cimetidine)","bone loss and inflammatory changes, H&E stained sections (FIG. 4) ([3]; topical 0.1, 1.0 and 10 μg/mL, Groups D, E, F)","preventive effect on bone loss, quantitative analysis of defleshed bone specimens (FIG. 2) ([4]; all three doses vs liposome (NOVASOME) placebo, p<0.05, ANOVA)","gingival inflammation and bone destruction (macroscopic, FIG. 1) ([4]; topical, in NOVASOME liposomes, 0.1, 1.0 and 10 μg/mL, every other day for 6 weeks, Groups D, E, F)",superoxide (O2·-) and hydrogen peroxide (H2O2) production of neutrophils (neutrophils),"immunomodulating effect among H2 receptor antagonists (cimetidine, ranitidine, famotidine) (lymphocyte)",percentage of bone loss as calculated by Bjorn technique (FIG. 3 lower panel) [5],clinical symptoms of disease [6]
C/N=C(\S)NCCSCc1[nH]cnc1C [metiamide],markedly influence,–,–,–,–,–,–,–,–,–,–,–,–,–,–,–,–
CN/C(=N/CCSCc1nc[nH]c1C)NC#N [Cimetidine],markedly influence,completely reverse,corresponding increase,decrease,complete resolution,"prevent bone loss, inflammatory cell infiltration, and connective tissue destruction",inhibits P. gingivalis-elicited leukocyte migration toward the site of infection,no significant differences between the cimetidine groups,significantly increased (p<0.05) distances compared to the Cimetidine-treated groups,"almost similar, insignificant (p>0.05) mean ratio values",prevent both bone loss and inflammatory changes,statistically significant,prevented the gingival inflammation and bone destruction in a significant and comparable way with no apparent dose-dependent effect,reduces,strongest immunomodulating effect,prevents the destructive effects of P. gingivalis-induced periodontitis,significant improvement effect
